Results as given in patent US11337971B2, “Dopamine D3 receptor selective antagonists/partial agonists and uses thereof” (THE UNITED STATES OF AMERICA, AS REPRESENTED BY THE …, priority 2018, dated 2022).
Read-outs that look alike come from different tables or passages of the source.

Columns and labels:
human D2R = human D2R (Homo sapiens (Human), UniProt P14416); assay: Radioligand competition binding, [3H]N-methylspiperone, HEK293 membranes expressing human D2R; conditions: read-out: D2R Ki ± SEM
human D2R, sequence (P14416 whole entry): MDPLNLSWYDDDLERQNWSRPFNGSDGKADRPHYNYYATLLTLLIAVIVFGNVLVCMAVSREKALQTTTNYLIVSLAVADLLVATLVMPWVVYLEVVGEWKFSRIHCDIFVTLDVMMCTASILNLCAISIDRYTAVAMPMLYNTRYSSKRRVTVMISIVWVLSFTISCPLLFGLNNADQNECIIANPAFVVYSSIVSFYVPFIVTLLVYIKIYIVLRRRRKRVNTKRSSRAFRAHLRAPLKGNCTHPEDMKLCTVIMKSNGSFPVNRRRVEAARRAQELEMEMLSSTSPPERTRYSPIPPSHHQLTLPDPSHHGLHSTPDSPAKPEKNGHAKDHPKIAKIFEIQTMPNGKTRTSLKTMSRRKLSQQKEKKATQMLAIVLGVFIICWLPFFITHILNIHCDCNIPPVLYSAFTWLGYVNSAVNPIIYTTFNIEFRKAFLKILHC
Description: (§1) Binding at dopamine D2-like receptors was determined using previously described methods. […] Upon reaching 80-90% confluence, cells were harvested using pre-mixed Earle's Balanced Salt Solution (EBSS) with […] EDTA (Life Technologies) and centrifuged at 3000 rpm for 10 min at 21° C. The supernatant was removed and the pellet was resuspended in 10 mL hypotonic lysis buffer (5 mM MgCl2.6H2O, 5 mM Tris, pH 7.4 at 4° C.) and centrifuged at 20,000 rpm for 30 min at 4° C. The pellet was then resuspended in fresh EBSS buffer made from 8.7 g/L Earle's Balanced Salts without phenol red (US Biological, Salem, Mass.), 2.2 g/L sodium bicarbonate, pH to 7.4. A Bradford protein assay (Bio-Rad, Hercules, Calif.) was used to determine the protein concentration and membranes were diluted to 500 μg/mL and stored in a −80° C. freezer for later use.
(§2) Radioligand competition binding experiments were conducted using thawed membranes. Test compounds were freshly dissolved in 30% DMSO and 70% H2O to a stock concentration of 100 μM. To assist the solubilization of free-base compounds, 10 μl of glacial acetic acid was added along with the DMSO. Each test compound was then diluted into 13 half-log serial dilutions using 30% DMSO vehicle; final test concentrations ranged from 10 μM to 10 pM. Previously frozen membranes were diluted in fresh EBSS to a 100 μg/mL (for hD2R or hD3R) or 200 μg/mL (hD4R) stock for binding. […] buffer with 0.2 mM sodium metabisulfite, 50 μl of diluted test compound, 100 μl of membranes (10 μg total protein for hD2R or hD3R, 20 μg total protein for hD4R), and 50 μl of [^3H]N-methylspiperone (0.4 nM final concentration; Perkin Elmer). Nonspecific binding was determined using 10 μM butaclamol (Sigma-Aldrich, St. Louis, Mo.) and total binding was determined with 30% DMSO vehicle. All compound dilutions were tested in triplicate and the reaction incubated for one hour at room temperature. The reaction was terminated by filtration through Whatman GF/B filters, presoaked for one hour in 0.5% polyethylenimine, using a Brandel R48 filtering manifold (Brandel Instruments, Gaithersburg, Md.). The filters were washed 3 times with 3 mL of ice cold EBSS buffer and transferred to scintillation vials. […] IC50 values for each compound were determined from dose-response curves and Ki values were calculated using the Cheng-Prusoff equation; these analyses were performed using GraphPad Prism version 5.00 for Windows (GraphPad Software, San Diego, Calif.). Reported Ki values were determined from least three independent experiments.
(§3) The binding affinities of the compounds were evaluated by performing competition binding studies with [^3H]N-methylspiperone using membranes prepared from HEK293 cells expressing either the human D2R or D3R.

5-HT2A = 5-HT2A (Homo sapiens (Human), UniProt P28223); assay: 5-HT2A [125I]DOI binding; conditions: read-out: 5-HT2A [125I]DOI Ki ± SEM
5-HT2A, sequence (P28223 whole entry, species assumed): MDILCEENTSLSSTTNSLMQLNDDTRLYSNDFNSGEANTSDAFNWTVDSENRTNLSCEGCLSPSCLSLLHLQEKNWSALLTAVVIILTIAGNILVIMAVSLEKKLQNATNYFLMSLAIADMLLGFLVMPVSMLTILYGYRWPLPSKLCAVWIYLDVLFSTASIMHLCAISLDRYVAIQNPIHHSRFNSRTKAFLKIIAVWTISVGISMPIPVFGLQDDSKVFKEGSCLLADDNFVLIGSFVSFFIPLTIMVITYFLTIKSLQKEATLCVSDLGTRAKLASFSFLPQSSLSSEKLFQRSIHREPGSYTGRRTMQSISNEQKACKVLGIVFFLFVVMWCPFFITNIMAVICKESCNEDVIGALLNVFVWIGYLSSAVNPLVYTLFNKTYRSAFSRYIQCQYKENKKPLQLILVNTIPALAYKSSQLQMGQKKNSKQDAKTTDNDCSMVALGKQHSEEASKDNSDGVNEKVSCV

5-HT2C = 5-HT2C (Homo sapiens (Human), UniProt P28335); assay: 5-HT2C [125I]DOI binding; conditions: read-out: 5-HT2C [125I]DOI Ki ± SEM
5-HT2C, sequence (P28335 33-458, species assumed): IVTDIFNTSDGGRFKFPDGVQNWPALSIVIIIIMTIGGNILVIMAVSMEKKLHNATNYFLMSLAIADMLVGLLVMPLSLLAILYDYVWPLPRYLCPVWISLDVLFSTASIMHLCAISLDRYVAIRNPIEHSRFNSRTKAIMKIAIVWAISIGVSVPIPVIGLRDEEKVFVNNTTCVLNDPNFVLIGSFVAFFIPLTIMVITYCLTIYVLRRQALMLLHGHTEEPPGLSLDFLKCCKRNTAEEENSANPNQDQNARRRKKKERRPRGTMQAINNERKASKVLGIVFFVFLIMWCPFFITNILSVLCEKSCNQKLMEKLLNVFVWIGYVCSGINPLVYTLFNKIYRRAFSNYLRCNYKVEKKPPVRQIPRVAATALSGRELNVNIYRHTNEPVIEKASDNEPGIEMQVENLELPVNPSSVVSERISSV

5-HT1A = 5-HT1A (Homo sapiens (Human), UniProt P08908); assay: 5-HT1A [3H]-8-OH-DPAT binding; conditions: read-out: 5-HT1A [3H]-8-OH-DPAT Ki ± SEM
5-HT1A, sequence (P08908 whole entry, species assumed): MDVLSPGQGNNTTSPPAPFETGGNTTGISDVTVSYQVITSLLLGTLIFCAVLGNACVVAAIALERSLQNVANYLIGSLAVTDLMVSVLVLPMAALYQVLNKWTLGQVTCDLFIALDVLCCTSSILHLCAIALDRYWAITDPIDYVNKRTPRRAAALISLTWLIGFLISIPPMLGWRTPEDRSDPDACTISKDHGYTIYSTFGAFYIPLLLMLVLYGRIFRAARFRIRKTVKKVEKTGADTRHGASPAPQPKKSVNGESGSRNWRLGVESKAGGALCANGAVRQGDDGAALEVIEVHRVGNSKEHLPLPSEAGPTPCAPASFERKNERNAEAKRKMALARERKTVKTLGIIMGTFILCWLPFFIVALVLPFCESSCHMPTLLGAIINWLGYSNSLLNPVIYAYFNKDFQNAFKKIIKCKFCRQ

human D4R = human D4R (Homo sapiens (Human), UniProt P21917); assay: Radioligand competition binding, [3H]N-methylspiperone, HEK293 membranes expressing human D4R; conditions: Table 1A; for Ki: [3H]N-methylspiperone, read-out: D4R Ki ± SEM; for D4/D2 / D4/D3: ratio of Ki values
human D4R, sequence (P21917 whole entry): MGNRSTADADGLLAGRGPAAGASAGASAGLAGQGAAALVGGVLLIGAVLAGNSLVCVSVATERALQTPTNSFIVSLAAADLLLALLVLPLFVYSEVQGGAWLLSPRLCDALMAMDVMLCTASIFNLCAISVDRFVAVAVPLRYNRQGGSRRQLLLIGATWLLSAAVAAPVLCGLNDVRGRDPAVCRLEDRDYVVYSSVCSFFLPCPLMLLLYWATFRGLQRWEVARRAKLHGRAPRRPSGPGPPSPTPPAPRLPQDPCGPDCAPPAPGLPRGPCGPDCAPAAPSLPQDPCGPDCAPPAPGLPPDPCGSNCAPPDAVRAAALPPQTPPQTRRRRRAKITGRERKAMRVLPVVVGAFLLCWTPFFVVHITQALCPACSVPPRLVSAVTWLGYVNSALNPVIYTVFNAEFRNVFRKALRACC
Description: Binding at dopamine D2-like receptors was determined using previously described methods. (Chen et al. “Tranylcypromine substituted cis-hydroxycyclobutylnaphthamides as potent and selective dopamine D(3) receptor antagonists.” J. Med. Chem. 2014, 57, 4962-4968) Membranes were prepared from HEK293 cells expressing human D2R, D3R or D4R, grown in a 50:50 mix of DMEM and Ham's F12 culture media, supplemented with 20 mM HEPES, 2 mM L-glutamine, 0.1 mM non-essential amino acids, 1× antibiotic/antimycotic, 10% heat-inactivated fetal bovine serum, and 200 μg/mL hygromycin (Life Technologies, Grand Island, N.Y.) and kept in an incubator at 37° C. and 5% CO2. Upon reaching 80-90% confluence, cells were harvested using pre-mixed Earle's Balanced Salt Solution (EBSS) with […] EDTA (Life Technologies) and centrifuged at 3000 rpm for 10 min at 21° C. The supernatant was removed and the pellet was resuspended in 10 mL hypotonic lysis buffer (5 mM MgCl2.6H2O, 5 mM Tris, pH 7.4 at 4° C.) and centrifuged at 20,000 rpm for 30 min at 4° C. The pellet was then resuspended in fresh EBSS buffer made from 8.7 g/L Earle's Balanced Salts without phenol red (US Biological, Salem, Mass.), 2.2 g/L sodium bicarbonate, pH to 7.4. A Bradford protein assay (Bio-Rad, Hercules, Calif.) was used to determine the protein concentration and membranes were diluted to 500 μg/mL and stored in a −80° C. freezer for later use.
Radioligand competition binding experiments were conducted using thawed membranes. Test compounds were freshly dissolved in 30% DMSO and 70% H2O to a stock concentration of 100 μM. To assist the solubilization of free-base compounds, 10 μl of glacial acetic acid was added along with the DMSO. Each test compound was then diluted into 13 half-log serial dilutions using 30% DMSO vehicle; final test concentrations ranged from 10 μM to 10 pM. Previously frozen membranes were diluted in fresh EBSS to a 100 μg/mL (for hD2R or hD3R) or 200 μg/mL (hD4R) stock for binding. Radioligand competition experiments were conducted in glass tubes containing 300 μl fresh EBSS buffer with 0.2 mM sodium metabisulfite, 50 μl of diluted test compound, 100 μl of membranes (10 μg total protein for hD2R or hD3R, 20 μg total protein for hD4R), and 50 μl of [^3H]N-methylspiperone (0.4 nM final concentration; Perkin Elmer). Nonspecific binding was determined using 10 μM butaclamol (Sigma-Aldrich, St. Louis, Mo.) and total binding was determined with 30% DMSO vehicle. All compound dilutions were tested in triplicate and the reaction incubated for one hour at room temperature. The reaction was terminated by filtration through Whatman GF/B filters, presoaked for one hour in 0.5% polyethylenimine, using a Brandel R48 filtering manifold (Brandel Instruments, Gaithersburg, Md.). The filters were washed 3 times with 3 mL of ice cold EBSS buffer and transferred to scintillation vials. 3 mL CytoScint liquid scintillation cocktail (MP Biomedicals, Solon, Ohio) was added and vials were counted using a Perkin Elmer Tri-Carb 2910 TR liquid scintillation counter (Waltham, Mass.). IC50 values for each compound were determined from dose-response curves and Ki values were calculated using the Cheng-Prusoff equation; these analyses were performed using GraphPad Prism version 5.00 for Windows (GraphPad Software, San Diego, Calif.). Reported Ki values were determined from least three independent experiments.

[1] = Phase I metabolic stability in rat liver microsomes; assay type: in vitro ADME; conditions: phase I metabolic stability in rat liver microsomes
Excerpt: Rat Liver Microsome Metabolic Stability: Test compounds including 3-F analogues (C4a, C4b, C5a, C5b) and 29, 19 as well as the R-, S-enantiomers of C4a, C5a, 29 and 19 were screened for phase I metabolic stability in rat liver microsomes.

human dopamine D3R = human dopamine D3R (Homo sapiens (Human), UniProt P35462); assay: D3R mitogenesis assay: stimulation or inhibition of quinpirole-stimulated mitogenesis in CHO cells; assay type: cell-based; conditions: inhibition of quinpirole-stimulated mitogenesis
human dopamine D3R, sequence (P35462 whole entry): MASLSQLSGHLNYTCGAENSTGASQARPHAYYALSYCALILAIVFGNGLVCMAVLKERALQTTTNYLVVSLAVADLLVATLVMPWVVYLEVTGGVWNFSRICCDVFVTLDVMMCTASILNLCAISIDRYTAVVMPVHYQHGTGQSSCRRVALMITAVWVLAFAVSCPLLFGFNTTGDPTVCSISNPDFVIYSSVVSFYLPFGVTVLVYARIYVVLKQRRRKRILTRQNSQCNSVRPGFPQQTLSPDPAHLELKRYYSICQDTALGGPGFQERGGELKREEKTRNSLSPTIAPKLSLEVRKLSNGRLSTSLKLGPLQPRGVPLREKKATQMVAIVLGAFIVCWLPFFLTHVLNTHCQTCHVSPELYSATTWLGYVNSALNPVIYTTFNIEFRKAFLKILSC

human D3R = human D3R (Homo sapiens (Human), UniProt P35462); assay: Radioligand competition binding, [3H]N-methylspiperone, HEK293 membranes expressing human D3R; conditions: for Ki: read-out: D3R Ki ± SEM; for D2/D3: ratio of Ki values
human D3R, sequence (P35462 whole entry): as above
Description: as §1, §2, §3

[2] = Table 1A, HEK 293 cells transfected with hD2LR, [3H]N-methylspiperone
[3] = Table 1B, [3H]-N-methylspiperone competition, D2LR, 96-well plates
[4] = Table 2b, read-out: Antagonist IC50 ± S.E.M.
[5] = Table 1B, [3H]-N-methylspiperone competition, 96-well plates
[6] = Table 2a, read-out: Antagonist IC50 ± SEM
[7] = Table 1A, HEK 293 cells transfected with hD3R, [3H]N-methylspiperone

Compound	Ki (human D2R; [2]) [nM]	Ki (human D2R; [3]) [nM]	Ki (human D2R; Table 1C) [nM]	Ki (5-HT2A; Table 3a) [nM]	Ki (5-HT2C; Table 3a) [nM]	Ki (5-HT1A; Table 3a) [nM]	Ki (human D4R) [nM]	% intact/parent remaining [1] [%]	IC50 (human dopamine D3R; [4]) [nM]	Ki (5-HT2A; Table 3b) [nM]	Ki (human D3R; [5]) [nM]	D2/D3 (human D3R; Table 1B)	D2/D3 (human D3R; Table 1C)	Ki (human D3R; Table 1C) [nM]	Ki (5-HT1A; Table 3b) [nM]	IC50 (human dopamine D3R; [6]) [nM]	Ki (human D3R; [7]) [nM]	D2/D3 (human D3R; Table 1A)	D4/D2 (human D4R)	D4/D3 (human D4R)	also measured
CCc1cccc(N2CCN(CC(O)CCNC(=O)c3cc4ccccc4[nH]3)CC2)c1Cl (racemic) [Compound 19, N-(4-(4-(2-chloro-3-ethylphenyl)piperazin-1-yl)-3-hydroxybutyl)-1H-indole-2-carboxamide]	151 ± 25.4	119 ± 11.1	132 ± 12.7	28.1 ± 9.7	113 ± 33	880 ± 160	5520 ± 1660	–	–	–	–	–	–	–	–	–	–	–	–	–	–
CCc1cc(Cl)c(OC)c(N2CCN(CC(F)CCNC(=O)c3cc4ccccc4[nH]3)CC2)c1 (racemic) [Compound C4a, N-(4-(4-(3-chloro-5-ethyl-2-methoxyphenyl)piperazin-1-yl)-3-fluorobutyl)-1H-indole-2-carboxamide]	–	27100 ± 11600	20800 ± 7060	–	–	–	–	~75	510 ± 130	6600 ± 1400	28 ± 5.53	968	746	27.9 ± 5.64	9500 ± 3000	–	–	–	–	–	–
CCc1cc(Cl)c(OC)c(N2CCN(CC(F)CCNC(=O)c3cc4ccccc4o3)CC2)c1 (racemic) [Compound C4b, N-(4-(4-(3-chloro-5-ethyl-2-methoxyphenyl)piperazin-1-yl)-3-fluorobutyl)benzofuran-2-carboxamide]	–	9740 ± 2100	10800 ± 2290	–	–	–	–	12	490 ± 150	2990 ± 530	89.9 ± 12.3	108	108	99.9 ± 13.4	2660 ± 570	–	–	–	–	–	Ki (5-HT2C; Table 3b): 1780 ± 390 nM
CCc1cccc(N2CCN(CC(F)CCNC(=O)c3cc4ccccc4[nH]3)CC2)c1Cl (racemic) [Compound C5a, N-(4-(4-(2-chloro-3-ethylphenyl)piperazin-1-yl)-3-fluorobutyl)-1H-indole-2-carboxamide]	–	124 ± 15.8	247 ± 57.4	–	–	–	–	38	95 ± 31	620 ± 120	0.482 ± 0.15	257	327	0.756 ± 0.185	910 ± 120	–	–	–	–	–	D3R selectivity over D2R (D2R/D3R) (human D3R): 327 fold; Ki (5-HT2C; Table 3b): 580 ± 160 nM
CCc1cc(Cl)c(OC)c(N2CCN(CCCCNC(=O)c3cc4ccccc4[nH]3)CC2)c1 [Compound 28, N-(4-(4-(3-Chloro-5-ethyl-2-methoxyphenyl)piperazin-1-yl)butyl)-1H-indole-2-carboxamide]	27.8 ± 6.71	–	–	60.1 ± 9.5	144 ± 37	2330 ± 700	1040 ± 279	–	–	–	–	–	–	–	–	330 ± 100	0.341 ± 0.0312	82	38	3065	–
CCc1cc(Cl)c(OC)c(N2CCN(CCCCNC(=O)c3cc4ccccc4o3)CC2)c1 [Compound 30, N-(4-(4-(3-Chloro-5-ethyl-2-methoxyphenyl)piperazin-1-yl)butyl)benzofuran-2-carboxamide]	137 ± 9	–	–	25 ± 6.6	55 ± 17	560 ± 170	714 ± 293	–	–	–	–	–	–	–	–	420 ± 130	3.19 ± 0.268	43	5.2	224	–
CCc1cc(Cl)c(OC)c(N2CCN(CC(O)CCNC(=O)c3cc4ccccc4o3)CC2)c1 (stereo not shown) [Compound 31, N-(4-(4-(3-Chloro-5-ethyl-2-methoxyphenyl)piperazin-1-yl)-3-hydroxybutyl)benzofuran-2-carboxamide]	1620 ± 339	–	–	42.9 ± 6.8	268 ± 34	2410 ± 830	5280 ± 319	–	–	–	–	–	–	–	–	950 ± 350	36.1 ± 5	45	3.3	146	–
